Results from ChEMBL document CHEMBL5678810.

What was measured:
[1] = target: Mitogen-activated protein kinase 7 (Homo sapiens, UniProt Q13164); assay: Inhibition of GST-tagged ERK5 (unknown origin) expressed in baculovirus expression system incubated for 90 mins in presence of ATP by PKLight ATP Detection Reagent based analysis
[2] = target: Dual specificity mitogen-activated protein kinase kinase 5 (Homo sapiens, UniProt Q13163); assay: Inhibition of GST-tagged MEK5 (unknown origin) expressed in baculovirus expression system incubated for 90 mins in presence of ATP by PKLight ATP Detection Reagent based analysis
Sequence of Dual specificity mitogen-activated protein kinase kinase 5 (Q13163 whole entry, the tested form may be a part): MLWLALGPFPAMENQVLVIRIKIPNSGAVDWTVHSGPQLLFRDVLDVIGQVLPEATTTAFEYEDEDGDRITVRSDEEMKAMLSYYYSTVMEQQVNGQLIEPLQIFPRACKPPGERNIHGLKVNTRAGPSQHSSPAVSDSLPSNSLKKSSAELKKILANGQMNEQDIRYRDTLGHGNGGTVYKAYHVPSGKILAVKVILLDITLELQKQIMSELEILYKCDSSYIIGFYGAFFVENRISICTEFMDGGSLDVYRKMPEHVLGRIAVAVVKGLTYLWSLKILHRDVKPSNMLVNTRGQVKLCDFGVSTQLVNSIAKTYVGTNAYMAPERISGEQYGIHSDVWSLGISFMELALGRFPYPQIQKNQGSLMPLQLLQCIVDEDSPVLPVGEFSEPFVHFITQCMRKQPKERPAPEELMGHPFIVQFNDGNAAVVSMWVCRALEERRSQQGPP

[3] = target: Ribosomal protein S6 kinase alpha-2 (Homo sapiens) (UniProt Q15349); assay: Inhibition of T7 bacteriophage fused human C-terminal RSK3 Kinase domain-2 at 10 uM by KINOMEscan analysis relative to control
Sequence of Ribosomal protein S6 kinase alpha-2 (Homo sapiens) (Q15349 whole entry, the tested form may be a part): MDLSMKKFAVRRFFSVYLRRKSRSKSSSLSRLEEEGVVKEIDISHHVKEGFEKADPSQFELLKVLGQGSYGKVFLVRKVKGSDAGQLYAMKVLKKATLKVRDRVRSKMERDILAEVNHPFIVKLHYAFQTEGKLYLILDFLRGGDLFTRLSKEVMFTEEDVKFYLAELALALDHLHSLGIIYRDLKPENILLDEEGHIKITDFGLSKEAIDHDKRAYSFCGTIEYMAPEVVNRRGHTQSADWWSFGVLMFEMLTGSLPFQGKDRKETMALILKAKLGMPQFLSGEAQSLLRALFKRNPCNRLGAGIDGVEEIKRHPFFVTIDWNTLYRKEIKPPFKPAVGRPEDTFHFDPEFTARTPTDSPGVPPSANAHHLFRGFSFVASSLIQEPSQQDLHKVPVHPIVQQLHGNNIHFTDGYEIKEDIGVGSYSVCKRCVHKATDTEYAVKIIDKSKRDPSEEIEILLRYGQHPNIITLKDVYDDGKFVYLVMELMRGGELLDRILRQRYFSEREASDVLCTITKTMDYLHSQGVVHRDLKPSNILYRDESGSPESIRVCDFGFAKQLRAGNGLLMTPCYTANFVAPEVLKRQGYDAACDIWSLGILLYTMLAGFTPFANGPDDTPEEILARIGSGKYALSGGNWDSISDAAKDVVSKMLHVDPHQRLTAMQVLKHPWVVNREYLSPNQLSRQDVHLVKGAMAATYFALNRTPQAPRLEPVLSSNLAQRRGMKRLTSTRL

[4] = target: Ribosomal protein S6 kinase alpha-6 (Homo sapiens) (UniProt Q9UK32); assay: Inhibition of T7 bacteriophage fused human C-terminal RSK4 Kinase domain-2 at 10 uM by KINOMEscan analysis relative to control
Sequence of Ribosomal protein S6 kinase alpha-6 (Homo sapiens) (Q9UK32 whole entry, the tested form may be a part): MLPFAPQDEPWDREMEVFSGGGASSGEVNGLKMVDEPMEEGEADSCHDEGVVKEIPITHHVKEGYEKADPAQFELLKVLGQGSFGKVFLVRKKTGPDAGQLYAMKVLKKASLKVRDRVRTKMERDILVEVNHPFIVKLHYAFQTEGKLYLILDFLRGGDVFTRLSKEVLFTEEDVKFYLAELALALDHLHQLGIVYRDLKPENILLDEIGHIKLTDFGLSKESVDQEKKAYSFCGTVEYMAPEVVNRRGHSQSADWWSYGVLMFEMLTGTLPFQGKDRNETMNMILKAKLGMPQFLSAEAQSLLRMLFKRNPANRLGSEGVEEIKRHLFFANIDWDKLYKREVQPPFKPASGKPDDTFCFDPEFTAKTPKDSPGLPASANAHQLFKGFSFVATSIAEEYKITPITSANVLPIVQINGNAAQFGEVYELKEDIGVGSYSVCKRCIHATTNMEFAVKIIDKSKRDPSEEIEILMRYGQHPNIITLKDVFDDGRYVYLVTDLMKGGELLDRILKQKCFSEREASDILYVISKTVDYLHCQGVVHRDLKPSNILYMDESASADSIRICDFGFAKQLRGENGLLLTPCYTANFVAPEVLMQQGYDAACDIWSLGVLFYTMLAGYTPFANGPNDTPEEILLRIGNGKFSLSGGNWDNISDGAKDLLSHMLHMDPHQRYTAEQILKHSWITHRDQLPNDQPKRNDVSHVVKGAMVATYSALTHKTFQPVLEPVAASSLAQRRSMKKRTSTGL

[5] = target: STE20-like serine/threonine-protein kinase (Homo sapiens) (UniProt Q9H2G2); assay: Inhibition of T7 bacteriophage fused human SLK at 10 uM by KINOMEscan analysis relative to control
[6] = target: T1, Dual specificity protein kinase TTK (Homo sapiens) (UniProt P33981); assay: Inhibition of T7 bacteriophage fused human TTK at 10 uM by KINOMEscan analysis relative to control
T1 sequence (whole entry): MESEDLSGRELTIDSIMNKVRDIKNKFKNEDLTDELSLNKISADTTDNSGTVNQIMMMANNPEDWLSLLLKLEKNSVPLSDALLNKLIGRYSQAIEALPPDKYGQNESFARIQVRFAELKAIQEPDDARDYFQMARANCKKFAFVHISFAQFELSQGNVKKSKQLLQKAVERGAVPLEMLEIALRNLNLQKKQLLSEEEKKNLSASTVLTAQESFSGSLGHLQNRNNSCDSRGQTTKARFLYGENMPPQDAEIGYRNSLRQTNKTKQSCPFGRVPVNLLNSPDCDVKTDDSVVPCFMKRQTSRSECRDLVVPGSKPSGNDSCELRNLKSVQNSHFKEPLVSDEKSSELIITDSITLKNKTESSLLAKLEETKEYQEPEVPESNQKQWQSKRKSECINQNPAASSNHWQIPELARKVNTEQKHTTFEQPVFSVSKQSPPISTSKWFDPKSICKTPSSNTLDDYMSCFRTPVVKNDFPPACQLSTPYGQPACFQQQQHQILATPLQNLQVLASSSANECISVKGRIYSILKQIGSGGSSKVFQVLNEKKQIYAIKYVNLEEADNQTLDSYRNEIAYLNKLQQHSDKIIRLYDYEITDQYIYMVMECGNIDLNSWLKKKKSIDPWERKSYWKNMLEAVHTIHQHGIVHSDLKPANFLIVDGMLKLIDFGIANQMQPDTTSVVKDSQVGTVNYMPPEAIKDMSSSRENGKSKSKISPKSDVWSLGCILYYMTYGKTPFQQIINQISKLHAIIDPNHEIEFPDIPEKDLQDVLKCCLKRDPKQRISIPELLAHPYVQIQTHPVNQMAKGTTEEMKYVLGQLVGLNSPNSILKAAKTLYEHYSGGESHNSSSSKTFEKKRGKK

[7] = target: Tyrosine-protein kinase Tec (Homo sapiens) (UniProt P42680); assay: Inhibition of T7 bacteriophage fused human TEC at 10 uM by KINOMEscan analysis relative to control
Sequence of Tyrosine-protein kinase Tec (Homo sapiens) (P42680 whole entry, looked up, the tested form may be a part): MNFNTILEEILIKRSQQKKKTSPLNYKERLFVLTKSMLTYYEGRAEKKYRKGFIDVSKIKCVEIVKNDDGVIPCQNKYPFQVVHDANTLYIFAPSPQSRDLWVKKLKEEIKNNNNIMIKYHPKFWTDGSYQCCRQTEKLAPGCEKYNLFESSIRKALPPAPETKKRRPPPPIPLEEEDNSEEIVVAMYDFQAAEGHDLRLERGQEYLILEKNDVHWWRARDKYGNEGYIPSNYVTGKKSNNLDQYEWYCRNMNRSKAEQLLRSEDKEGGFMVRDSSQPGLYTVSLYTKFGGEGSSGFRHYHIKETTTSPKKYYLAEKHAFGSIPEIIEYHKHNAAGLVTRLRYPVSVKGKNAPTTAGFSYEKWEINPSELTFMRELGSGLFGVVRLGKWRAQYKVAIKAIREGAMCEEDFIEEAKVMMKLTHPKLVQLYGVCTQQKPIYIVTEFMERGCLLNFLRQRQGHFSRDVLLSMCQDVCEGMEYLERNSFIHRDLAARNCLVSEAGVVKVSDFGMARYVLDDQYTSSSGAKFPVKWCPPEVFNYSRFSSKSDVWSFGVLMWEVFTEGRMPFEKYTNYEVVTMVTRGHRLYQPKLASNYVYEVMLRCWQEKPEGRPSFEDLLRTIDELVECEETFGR

[8] = target: Peripheral plasma membrane protein CASK (Homo sapiens) (UniProt O14936); assay: Inhibition of T7 bacteriophage fused human CASK at 10 uM by KINOMEscan analysis relative to control
Sequence of Peripheral plasma membrane protein CASK (Homo sapiens) (O14936 whole entry, looked up, the tested form may be a part): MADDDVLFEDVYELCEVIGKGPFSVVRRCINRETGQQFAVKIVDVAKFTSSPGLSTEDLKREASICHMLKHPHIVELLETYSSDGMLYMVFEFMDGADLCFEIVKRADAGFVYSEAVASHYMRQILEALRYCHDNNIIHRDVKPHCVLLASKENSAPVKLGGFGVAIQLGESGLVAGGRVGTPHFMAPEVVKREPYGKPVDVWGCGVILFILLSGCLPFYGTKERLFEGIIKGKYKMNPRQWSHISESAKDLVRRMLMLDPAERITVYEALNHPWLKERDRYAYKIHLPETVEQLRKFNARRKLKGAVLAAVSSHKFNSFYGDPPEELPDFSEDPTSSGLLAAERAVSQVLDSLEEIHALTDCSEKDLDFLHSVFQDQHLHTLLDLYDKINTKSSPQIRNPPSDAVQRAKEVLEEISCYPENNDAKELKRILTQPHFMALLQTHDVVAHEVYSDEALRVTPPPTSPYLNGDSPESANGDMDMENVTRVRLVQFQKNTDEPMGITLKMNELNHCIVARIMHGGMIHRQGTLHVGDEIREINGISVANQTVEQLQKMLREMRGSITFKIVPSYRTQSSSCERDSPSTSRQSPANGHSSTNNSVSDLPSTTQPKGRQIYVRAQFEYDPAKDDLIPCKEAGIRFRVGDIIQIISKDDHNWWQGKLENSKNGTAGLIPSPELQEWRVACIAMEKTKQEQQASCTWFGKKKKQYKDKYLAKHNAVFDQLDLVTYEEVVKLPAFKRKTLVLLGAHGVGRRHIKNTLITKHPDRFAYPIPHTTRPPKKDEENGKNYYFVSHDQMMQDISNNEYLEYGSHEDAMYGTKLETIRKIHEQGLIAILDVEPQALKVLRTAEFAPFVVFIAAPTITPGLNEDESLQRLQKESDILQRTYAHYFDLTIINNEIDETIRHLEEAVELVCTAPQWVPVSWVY

Sequence of Mitogen-activated protein kinase 7 (Q13164 whole entry): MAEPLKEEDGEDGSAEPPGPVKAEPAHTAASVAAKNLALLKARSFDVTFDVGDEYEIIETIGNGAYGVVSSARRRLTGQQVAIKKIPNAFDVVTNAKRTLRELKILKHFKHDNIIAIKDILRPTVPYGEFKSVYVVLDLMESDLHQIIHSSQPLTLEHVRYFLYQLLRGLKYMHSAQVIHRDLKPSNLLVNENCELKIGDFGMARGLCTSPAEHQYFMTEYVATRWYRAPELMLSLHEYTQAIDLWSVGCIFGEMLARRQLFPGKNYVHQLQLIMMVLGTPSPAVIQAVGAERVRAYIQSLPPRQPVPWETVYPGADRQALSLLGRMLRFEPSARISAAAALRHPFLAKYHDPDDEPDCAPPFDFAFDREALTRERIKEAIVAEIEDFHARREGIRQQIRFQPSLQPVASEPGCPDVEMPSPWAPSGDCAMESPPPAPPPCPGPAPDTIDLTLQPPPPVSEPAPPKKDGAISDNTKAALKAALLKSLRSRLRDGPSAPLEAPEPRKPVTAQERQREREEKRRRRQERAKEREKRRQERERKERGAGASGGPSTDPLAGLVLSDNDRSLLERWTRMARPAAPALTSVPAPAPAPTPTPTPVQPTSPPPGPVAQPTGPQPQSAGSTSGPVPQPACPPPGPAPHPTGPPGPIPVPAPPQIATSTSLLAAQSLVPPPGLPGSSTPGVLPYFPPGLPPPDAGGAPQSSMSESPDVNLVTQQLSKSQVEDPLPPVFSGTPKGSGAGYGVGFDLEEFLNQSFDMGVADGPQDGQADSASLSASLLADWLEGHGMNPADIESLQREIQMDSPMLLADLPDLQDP

| IC50 [1] | IC50 [2] | Structure (SMILES) | inhibition [3] | inhibition [4] | inhibition [5] | inhibition [6] | inhibition [7] | inhibition [8] |
| --- | --- | --- | --- | --- | --- | --- | --- | --- |
| 810 nM | 4.3 nM | CN(C)Cc1cccc(N/C(=C2\C(=O)Nc3cc(C(N)=O)ccc32)c2ccccc2)c1 |  |  |  |  |  |  |
|  |  | COc1cc(C(=O)N2CCC(N3CCN(C)CC3)CC2)ccc1Nc1ncc2c(n1)N1CCc3cccc(c31)C(=O)N2C | 13% | 5.2% | 49% | 46% | 100% | 100% |
